Experimental data published in US8822446B2, “Pyrrolopyridine inhibitors of kinases” (AbbVie Inc., priority 2010, dated 2014).

molecular target: T1, Cdc7 (BEV coexpressed huCDC7/DBF4) (Homo sapiens, UniProt O00311); test: Cdc7 enzyme inhibition assay ([33P]-ATP, biotinylated peptide substrate, FlashPlate); assay type: biochemical; details: Ki generated from IC50 assuming ATP-competitive inhibition; 1 μM ATP, apparent ATP Km 0.7 μM; 1 hr reaction
T1 construct: made in house; host or cells: baculovirus expression vector (BEV) co-expression
Method: This example describes the assays that may be used to identify compounds having kinase activity.
Cdc7 (BEV coexpressed huCDC7/DBF4) is prepared internally. Cdc7 assays are conducted as follows with final concentrations as listed. In 384-well v-bottom polypropylene plates, 6 μL compound (2% DMSO), is mixed with 6 μL of Cdc7 (2 ug/mL), and Jerini peptide substrate A-A11 (biotin-C6linker-[…]) (2 μM), followed by immediate initiation with 6 μL […] (1 μM, 20 mCi/μmol) using a reaction buffer comprising 25 mM HEPES, pH 7.5, 1 mM DTT, 10 mM MgCl2, 100 μM, Na3VO4, 0.075 mg/ml Triton X-100. Reactions are quenched after 1 hr by the addition of 90 μL stop buffer (50 mM EDTA, 2M NaCl).
Table 1 depicts enzyme inhibition data (Ki) for exemplary compounds.

T1 sequence (O00311 whole entry): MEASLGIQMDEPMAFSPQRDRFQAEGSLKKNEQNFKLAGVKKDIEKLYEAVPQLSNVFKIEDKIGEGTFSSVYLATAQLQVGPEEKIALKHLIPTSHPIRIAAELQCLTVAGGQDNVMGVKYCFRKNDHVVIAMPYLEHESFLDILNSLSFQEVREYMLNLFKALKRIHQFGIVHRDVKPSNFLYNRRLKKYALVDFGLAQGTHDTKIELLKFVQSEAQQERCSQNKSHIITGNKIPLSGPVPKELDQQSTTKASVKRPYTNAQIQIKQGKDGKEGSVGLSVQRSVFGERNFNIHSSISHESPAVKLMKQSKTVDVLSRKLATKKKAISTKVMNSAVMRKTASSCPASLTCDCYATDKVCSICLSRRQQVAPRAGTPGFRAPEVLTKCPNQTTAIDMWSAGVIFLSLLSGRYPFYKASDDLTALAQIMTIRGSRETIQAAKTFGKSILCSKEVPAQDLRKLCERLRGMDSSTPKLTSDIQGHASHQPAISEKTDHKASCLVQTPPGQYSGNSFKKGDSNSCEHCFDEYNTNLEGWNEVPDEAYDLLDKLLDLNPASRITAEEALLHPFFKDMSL
T1 sequence (Q9UBU7 whole entry partner): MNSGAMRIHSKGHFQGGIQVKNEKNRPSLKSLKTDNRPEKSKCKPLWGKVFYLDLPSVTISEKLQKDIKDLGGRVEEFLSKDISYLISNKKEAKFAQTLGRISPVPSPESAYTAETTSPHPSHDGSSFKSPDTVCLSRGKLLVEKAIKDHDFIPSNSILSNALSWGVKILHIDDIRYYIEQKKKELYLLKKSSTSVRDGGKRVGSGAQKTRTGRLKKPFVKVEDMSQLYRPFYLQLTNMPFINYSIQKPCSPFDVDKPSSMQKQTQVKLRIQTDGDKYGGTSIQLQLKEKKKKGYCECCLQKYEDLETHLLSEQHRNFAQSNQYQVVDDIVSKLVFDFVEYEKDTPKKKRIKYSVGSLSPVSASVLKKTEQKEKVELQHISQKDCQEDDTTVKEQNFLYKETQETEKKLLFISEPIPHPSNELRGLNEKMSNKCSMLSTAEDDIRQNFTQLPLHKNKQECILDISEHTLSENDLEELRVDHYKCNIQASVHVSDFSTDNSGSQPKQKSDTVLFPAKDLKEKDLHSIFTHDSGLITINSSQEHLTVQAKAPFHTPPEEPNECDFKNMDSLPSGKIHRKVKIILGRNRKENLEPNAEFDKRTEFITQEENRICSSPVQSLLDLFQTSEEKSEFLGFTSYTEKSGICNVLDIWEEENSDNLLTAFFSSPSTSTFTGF

Ki, < 0.01 µM:
O=c1cc(-c2c[nH]c3ncccc23)cc(-c2cccc(Cl)c2)[nH]1 [Example 42, 6-(3-chlorophenyl)-4-(1H-pyrrolo[2,3-b]pyridin-3-yl)pyridin-2(1H)-one]
COc1cccc(-c2cc(-c3c[nH]c4ncccc34)cc(=O)[nH]2)c1OC [Example 43, 6-(2,3-dimethoxyphenyl)-4-(1H-pyrrolo[2,3-b]pyridin-3-yl)pyridin-2(1H)-one]
COc1cccc(-c2cc(-c3c[nH]c4ncccc34)cc(=O)[nH]2)c1F [Example 44, 6-(2-fluoro-3-methoxyphenyl)-4-(1H-pyrrolo[2,3-b]pyridin-3-yl)pyridin-2(1H)-one]
O=c1cc(-c2c[nH]c3ncccc23)cc(-c2ccc(Cl)cc2F)[nH]1 [Example 45, 6-(4-chloro-2-fluorophenyl)-4-(1H-pyrrolo[2,3-b]pyridin-3-yl)pyridin-2(1H)-one]
COc1ccc(C(F)(F)F)cc1-c1cc(-c2c[nH]c3ncccc23)cc(=O)[nH]1 [Example 46, 6-[2-methoxy-5-(trifluoromethyl)phenyl]-4-(1H-pyrrolo[2,3-b]pyridin-3-yl)pyridin-2(1H)-one]
COc1ncccc1-c1cc(-c2c[nH]c3ncccc23)cc(=O)[nH]1 [Example 47, 2′-methoxy-4-(1H-pyrrolo[2,3-b]pyridin-3-yl)-2,3′-bipyridin-6(1H)-one]
Cc1c(Cl)cccc1-c1cc(-c2c[nH]c3ncccc23)cc(=O)[nH]1 [Example 48, 6-(3-chloro-2-methylphenyl)-4-(1H-pyrrolo[2,3-b]pyridin-3-yl)pyridin-2(1H)-one]
COc1nccc(-c2cc(-c3c[nH]c4ncccc34)cc(=O)[nH]2)c1Cl [Example 49, 3′-chloro-2′-methoxy-4-(1H-pyrrolo[2,3-b]pyridin-3-yl)-2,4′-bipyridin-6(1H)-one]
O=c1cc(-c2c[nH]c3ncccc23)cc(-c2cccc(N3CCOCC3)c2)[nH]1 [Example 50, 6-[3-(morpholin-4-yl)phenyl]-4-(1H-pyrrolo[2,3-b]pyridin-3-yl)pyridin-2(1H)-one]
CS(=O)(=O)c1cccc(-c2cc(-c3c[nH]c4ncccc34)cc(=O)[nH]2)c1 [Example 51, 6-[3-(methylsulfonyl)phenyl]-4-(1H-pyrrolo[2,3-b]pyridin-3-yl)pyridin-2(1H)-one]
O=c1cc(-c2c[nH]c3ncccc23)cc(-c2cn[nH]c2)[nH]1 [Example 52, 6-(1H-pyrazol-4-yl)-4-(1H-pyrrolo[2,3-b]pyridin-3-yl)pyridin-2(1H)-one]
Cc1ncccc1-c1cc(-c2c[nH]c3ncccc23)cc(=O)[nH]1 [Example 53, 2′-methyl-4-(1H-pyrrolo[2,3-b]pyridin-3-yl)-2,3′-bipyridin-6(1H)-one]
COc1cccc(Nc2cc(-c3c[nH]c4ncccc34)cc(=O)[nH]2)c1 [Example 54, 6-[(3-methoxyphenyl)amino]-4-(1H-pyrrolo[2,3-b]pyridin-3-yl)pyridin-2(1H)-one]
O=c1cc(-c2c[nH]c3ncccc23)cc(Nc2ccccc2)[nH]1 [Example 55, 6-anilino-4-(1H-pyrrolo[2,3-b]pyridin-3-yl)pyridin-2(1H)-one]
N[C@H]1CC[C@H](Nc2cc(-c3c[nH]c4ncccc34)cc(=O)[nH]2)CC1 [Example 56, 6-[(trans-4-aminocyclohexyl)amino]-4-(1H-pyrrolo[2,3-b]pyridin-3-yl)pyridin-2(1H)-one]
O=c1cc(-c2c[nH]c3ncccc23)cc(N[C@H]2CC[C@H](NS(=O)(=O)C3CC3)CC2)[nH]1 [Example 57, N-(trans-4-{[6-oxo-4-(1H-pyrrolo[2,3-b]pyridin-3-yl)-1,6-dihydropyridin-2-yl]amino}cyclohexyl)cyclopropanesulfonamide]
O=C(N[C@H]1CC[C@H](Nc2cc(-c3c[nH]c4ncccc34)cc(=O)[nH]2)CC1)C1CC1 [Example 58, N-(trans-4-{[6-oxo-4-(1H-pyrrolo[2,3-b]pyridin-3-yl)-1,6-dihydropyridin-2-yl]amino}cyclohexyl)cyclopropanecarboxamide]
O=C(N[C@H]1CC[C@H](Nc2cc(-c3c[nH]c4ncccc34)cc(=O)[nH]2)CC1)C1CN(Cc2ccc(F)cc2)C1 [Example 59, 1-(4-fluorobenzyl)-N-(trans-4-{[6-oxo-4-(1H-pyrrolo[2,3-b]pyridin-3-yl)-1,6-dihydropyridin-2-yl]amino}cyclohexyl)azetidine-3-carboxamide]
Cc1ccc(-c2nc(-c3c[nH]c4ncccc34)cc(=O)[nH]2)cc1 [Example 60, 2-(4-methylphenyl)-6-(1H-pyrrolo[2,3-b]pyridin-3-yl)pyrimidin-4(3H)-one]
Cc1cccc(-c2nc(-c3c[nH]c4ncccc34)cc(=O)[nH]2)c1 [Example 61, 2-(3-methylphenyl)-6-(1H-pyrrolo[2,3-b]pyridin-3-yl)pyrimidin-4(3H)-one]
Cc1cccc(-c2nc(-c3c[nH]c4ncccc34)cc(=O)[nH]2)c1C [Example 62, 2-(2,3-dimethylphenyl)-6-(1H-pyrrolo[2,3-b]pyridin-3-yl)pyrimidin-4(3H)-one]
NCCCOc1cccc(CNc2nc(-c3c[nH]c4ncccc34)cc(=O)[nH]2)c1 [Example 63, 2-{[3-(3-aminopropoxy)benzyl]amino}-6-(1H-pyrrolo[2,3-b]pyridin-3-yl)pyrimidin-4(3H)-one]
